Values after ≈ are worked out from the molar mass of the structure shown.
Key:
[1] = test system: Escherichia coli ATCC 2592; assay: MIC, two-fold serial dilution, E. coli; type: cell-based; conditions: ATCC2592, read-out: Minimum inhibitory concentration, EC
Text: (§1) The new molecules were individually tested for their antimicrobial activity in vitro against standard bacteria strains from the American Type Culture Collection (ATCC), namely, Staphylococcus aureus ATCC 29213, Bacillus subtilis ATCC 6633, Bacillus megaterium ATCC 9885 (Gram-positive), Escherichia coli ATCC 2592, and Pseudomonas aeruginosa ATCC 27,953 (Gram-negative). The compounds were also microbiologically tested against locally isolated Saccharomyces cerevisiae (yeast) and the standard Agricultural Research Service Culture Collection (NRRL) strain of the yeast-like pathogenic fungus Candida albicans NRRL Y-477. Primary screening was conducted using the agar well diffusion method using nutrient agar (NA) medium and Sabourand dextrose agar (SDA) medium for the tested pathological bacteria and yeast, respectively. […].
(§2) The bacteriostatic activity of the active compounds (having IZ > 16 mm) was then evaluated using the two-fold serial dilution technique. Two-fold serial dilutions of the tested compounds solutions were prepared using the proper nutrient broth to reach final concentrations of 1000, 500, 250, and 125 μg/mL. The tubes were then inoculated with the test microorganisms grown in their suitable broth at 37 °C for 24 h (1 × 10^8 CFU/mL for bacteria and 1 × 10^6 CFU/mL of yeast), 0.1 mL of the above inoculum was administered per 5 mL, and the tubes were incubated at 37 °C for 24 h. The lowest concentration showing no growth was taken as the MIC.

[2] = test system: Candida albicans NRRL Y-477; assay: MIC, two-fold serial dilution, C. albicans; type: cell-based; conditions: NRRLY477, read-out: Minimum inhibitory concentration, CA
Text: as §1, §2

[3] = test system: Pseudomonas aeruginosa ATCC 27,953; assay: MIC, two-fold serial dilution, P. aeruginosa; type: cell-based; conditions: ATCC27, read-out: Minimum inhibitory concentration, PA
Text: as §1, §2

[4] = test system: Saccharomyces cerevisiae local isolate; assay: MIC, two-fold serial dilution, S. cerevisiae; type: cell-based; conditions: two-fold serial dilution, S. cerevisiae, read-out: Minimum inhibitory concentration, SC
Text: as §1, §2

[5] = test system: Bacillus megaterium ATCC 9885; assay: Agar well diffusion, B. megaterium; type: cell-based; conditions: Priestia megaterium, ATCC9885, 100 μL of 10 mg/mL in DMSO, read-out: diameter of inhibition zone, BM
Text: as §1
(§3) Antimicrobial tests were conducted via the agar well diffusion method using 100 μL of suspension containing 1 × 10^8 CFU/mL pathological tested bacteria and 1 × 10^6 CFU/mL yeast spread on NA and SDA, respectively. After the media cooled and solidified, wells (10 mm in diameter) were made in the solidified agar and loaded with 100 μL of the tested compound solution prepared by dissolving 10 mg of the chemical compound in 1 mL dimethyl sulfoxide (DMSO). The inoculated plates were then incubated for 24 h at 37 °C for bacteria and yeast growth. DMSO served as negative control. Ciprofloxacin (10 mg/mL) and ketoconazole (10 mg/mL) were used as standards for antibacterial and antifungal activity, respectively. After incubation, antimicrobial activity was evaluated by measuring the zone of inhibition against the test organisms and compared with that of the standard. Antimicrobial activities were expressed as the diameter of the inhibition zone (IZ) in mm. The experiment was carried out in triplicate and the average zone of inhibition was calculated.

[6] = test system: Bacillus subtilis ATCC 6633; assay: MIC, two-fold serial dilution, B. subtilis; type: cell-based; conditions: ATCC6633, read-out: Minimum inhibitory concentration, BS
Text: as §1, §2

[7] = test system: Bacillus megaterium ATCC 9885; assay: MIC, two-fold serial dilution, B. megaterium; type: cell-based; conditions: Priestia megaterium, ATCC9885, read-out: Minimum inhibitory concentration, BM
Text: as §1, §2

[8] = test system: Staphylococcus aureus ATCC 29213; assay: MIC, two-fold serial dilution, S. aureus; type: cell-based; conditions: ATCC29213, read-out: Minimum inhibitory concentration, SA
Text: as §1, §2

[9] = test system: Candida albicans NRRL Y-477; assay: Agar well diffusion, C. albicans; type: cell-based; conditions: NRRLY477, 100 μL of 10 mg/mL in DMSO, read-out: diameter of inhibition zone, CA
Text: as §1, §3

[10] = test system: Escherichia coli ATCC 2592; assay: Agar well diffusion, E. coli; type: cell-based; conditions: ATCC2592, 100 μL of 10 mg/mL in DMSO, read-out: diameter of inhibition zone, EC
Text: as §1, §3

[11] = test system: Saccharomyces cerevisiae local isolate; assay: Agar well diffusion, S. cerevisiae; type: cell-based; conditions: well diffusion, 100 μL of 10 mg/mL in DMSO, S. cerevisiae, read-out: diameter of inhibition zone, SC
Text: as §1, §3

[12] = test system: Pseudomonas aeruginosa ATCC 27,953; assay: Agar well diffusion, P. aeruginosa; type: cell-based; conditions: ATCC27, 100 μL of 10 mg/mL in DMSO, read-out: diameter of inhibition zone, PA
Text: as §1, §3

trypsin = assay: Proteinase-inhibitory activity; type: biochemical; conditions: 250 µg/mL; mean ± SD (n = 3)
Method: The newly synthesised compounds were individually tested for their in vitro anti-inflammatory activity against proteinase enzyme. […] This test was performed at the Pharmacology Department, Medical Research Division, National Research Centre, Cairo, Egypt. Furthermore, compounds 2–8 were evaluated for their COX1/COX2 inhibitory activities.
The test was performed according to El-Serwy et al. with minor modifications. The reaction mixture (2 mL) contained 0.06 mg trypsin, 20 mM Tris HCl buffer (pH 7.4), and 1 mL test sample (250 µg/mL for each compound). After incubating for 5 min, 1 mL of 0.8% (w/v) casein was added. The mixture was incubated for an additional 20 min. The reaction was arrested by adding 1 mL of 10% perchloric acid. The cloudy suspension was centrifuged, and the absorbance of the supernatant was read at 280 nm. Reference standard aspirin was used as the positive control. The experiment was performed in triplicate. The percent inhibition of protein denaturation was calculated using the following Equation (2):(2) % Inhibition=100−A control −A test/A control×100 where Acontrol and Atest represent the absorbance of the control reaction without and with the sample, respectively.

[13] = DPPH antioxidant assay (radical scavenging); type: biochemical; conditions: mean ± SD (n = 3)
Method: The antioxidant effects of the synthesised compounds were assessed using the 2,2-diphenyl-1-picrylhydrazyl (DPPH) antioxidant assay. Table 1 summarises the antioxidant effects of the test samples and ascorbic acid except for compound 5b because it was produced in poor yield.
The radical scavenging activity of the synthesised compounds was measured using the DPPH microplate-based method. The absorbance was measured using a microplate/cuvette reader (Spectramax M5, Molecular Devices, San Jose, CA, USA). Reference standard ascorbic acid was utilised as the positive control for this assay. Test samples were prepared at a starting concentration of 200 μg/mL after mixing with 100 μL of 0.2 mM DPPH methanolic solution. […] Samples were incubated with DPPH in the dark for 30 min at room temperature (25 °C). The methanolic DPPH solution was prepared daily and stored in a flask covered with aluminium foil. DPPH radicals have an absorption maximum (λmax) at 515 nm, at which the absorbance values were measured and converted into a percentage of antioxidant activity.
The methanolic DPPH solution without antioxidants was used as a control, and samples in methanol alone served as a background control. IC50 was determined using GraphPad Prism 7 (GraphPad Software Inc., San Diego, CA, USA). The percent inhibition was calculated using the following Equation (1):(1) % Inhibition=100−Sample Absorbance −Sample background Absorbance/DPPH only Absorbance×100
The assay was carried out in triplicate and performed as much as possible in an area protected against light. The data points are presented as the mean ± standard deviation (SD, n = 3).

[14] = test system: Staphylococcus aureus ATCC 29213; assay: Agar well diffusion, S. aureus; type: cell-based; conditions: ATCC29213, 100 μL of 10 mg/mL in DMSO, read-out: diameter of inhibition zone, SA
Text: as §1, §3

[15] = test system: Bacillus subtilis ATCC 6633; assay: Agar well diffusion, B. subtilis; type: cell-based; conditions: ATCC6633, 100 μL of 10 mg/mL in DMSO, read-out: diameter of inhibition zone, BS
Text: as §1, §3

tested microorganisms = assay: MIC, summary over the tested microorganisms; type: cell-based; conditions: two-fold serial dilution; read-out: MIC against one or more tested microorganisms
Text: as §1, §2

Structure (SMILES) | MIC [1] [µg/mL] | MIC [2] [µg/mL] | MIC [3] [µg/mL] | MIC [4] [µg/mL] | melting point [°C] | MIC [6] [µg/mL] | MIC [7] [µg/mL] | MIC [8] [µg/mL] | IC50 [13] | zone of inhibition at 10000 µg/mL [5] [mm] | zone of inhibition at 10000 µg/mL [9] [mm] | zone of inhibition at 10000 µg/mL [10] [mm] | zone of inhibition at 10000 µg/mL [11] [mm] | zone of inhibition at 10000 µg/mL [12] [mm] | % Inhibition (proteinase) (trypsin) [%] | zone of inhibition at 10000 µg/mL [14] [mm] | zone of inhibition at 10000 µg/mL [15] [mm] | MIC (tested microorganisms) [µg/mL]
Cc1ccc2oc(=O)c(S(=O)(=O)Nc3ccc(C(=O)/C=C/c4ccc([N+](=O)[O-])cc4)cc3)c(O)c2c1 [9b, (E)-4-Hydroxy-6-methyl-N-(4-(3-(4-nitrophenyl)acryloyl)phenyl)-2-oxo-2H-chromene-3-sulfonamide] | 250 (≈ 494 µM) | 500 (≈ 987 µM) | 250 (≈ 494 µM) | 500 (≈ 987 µM) | 220 | 500 (≈ 987 µM) | 500 (≈ 987 µM) | 500 (≈ 987 µM) | — ((—): inactive (IC50 > 200 μg/mL)) | 25 | 23 | 26 | 25 | 26 | – | 22 | 24 | –
O=C(/C=C/c1ccc(Cl)cc1)c1ccc(NS(=O)(=O)c2c(O)c3cc(Cl)ccc3oc2=O)cc1 [9c, (E)-6-Chloro-N-(4-(3-(4-chlorophenyl)acryloyl)phenyl)-4-hydroxy-2-oxo-2H-chromene-3-sulfonamide] | 250 (≈ 484 µM) | 125 (≈ 242 µM) | 250 (≈ 484 µM) | 125 (≈ 242 µM) | 157 to 159 | 250 (≈ 484 µM) | 250 (≈ 484 µM) | 250 (≈ 484 µM) | — ((—): inactive (IC50 > 200 μg/mL)) | 30 | 30 | 30 | 31 to 32 | 30 | 17.6 ± 6.86 | 28 | 29 | 125 (≈ 242 µM)
Cc1ccc2oc(=O)c(S(=O)(=O)Nc3ccc(C(=O)/C=C/c4ccc(Cl)cc4)cc3)c(O)c2c1 [9d, (E)-N-(4-(3-(4-chlorophenyl)acryloyl)phenyl)-4-hydroxy-6-methyl-2-oxo-2H-chromene-3-sulfonamide] | 250 (≈ 504 µM) | 125 (≈ 252 µM) | 250 (≈ 504 µM) | 125 (≈ 252 µM) | 141 to 143 | 250 (≈ 504 µM) | 250 (≈ 504 µM) | 250 (≈ 504 µM) | — ((—): inactive (IC50 > 200 μg/mL)) | 29 | 30 | 38 | 31 to 32 | 29 | 31.88 ± 3.82 | 28 | 29 | 125 (≈ 252 µM)

Second part, led by results:

MIC [1] [µg/mL] | MIC [2] [µg/mL] | MIC [3] [µg/mL] | MIC [4] [µg/mL] | melting point [°C] | MIC [6] [µg/mL] | MIC [7] [µg/mL] | MIC [8] [µg/mL] | IC50 [13] | Structure (SMILES) | zone of inhibition at 10000 µg/mL [5] [mm] | zone of inhibition at 10000 µg/mL [9] [mm] | zone of inhibition at 10000 µg/mL [10] [mm] | zone of inhibition at 10000 µg/mL [11] [mm] | zone of inhibition at 10000 µg/mL [12] [mm] | % Inhibition (proteinase) (trypsin) [%] | zone of inhibition at 10000 µg/mL [14] [mm] | zone of inhibition at 10000 µg/mL [15] [mm] | MIC (tested microorganisms) [µg/mL]
500 (≈ 977 µM) | 500 (≈ 977 µM) | 500 (≈ 977 µM) | 250 (≈ 488 µM) | > 300 | 500 (≈ 977 µM) | 500 (≈ 977 µM) | 500 (≈ 977 µM) | — ((—): inactive (IC50 > 200 μg/mL)) | COc1ccc(/C=C/C(=O)c2ccc(NS(=O)(=O)c3c(O)c4cc(Cl)ccc4oc3=O)cc2)cc1 [9e, (E)-6-Chloro-4-hydroxy-N-(4-(3-(4-methoxyphenyl)acryloyl)phenyl)-2-oxo-2H-chromene-3-sulfonamide] | 20 | 23 | 21 | 29 | 21 | 22.83 ± 4.88 | 23 | 21 | –
250 (≈ 509 µM) | 500 (≈ 1020 µM) | 250 (≈ 509 µM) | 500 (≈ 1020 µM) | > 300 | 500 (≈ 1020 µM) | 250 (≈ 509 µM) | 500 (≈ 1020 µM) | — ((—): inactive (IC50 > 200 μg/mL)) | COc1ccc(/C=C/C(=O)c2ccc(NS(=O)(=O)c3c(O)c4cc(C)ccc4oc3=O)cc2)cc1 [9f, (E)-4-Hydroxy-N-(4-(3-(4-methoxyphenyl)acryloyl)phenyl)-6-methyl-2-oxo-2H-chromene-3-sulfonamide] | 26 | 24 | 26 | 26 | 28 | 21.7 ± 7.6 | 25 | 25 | –
